Data on 7 compounds can be found in US10682323B2, “Therapeutic agent for glaucoma” (TOA EIYO LTD., priority 2016, dated 2020).

pEC50: −log10 of the molar value.

In the assay the target is T1, human sGC (Homo sapiens, UniProt Q02153).
T1 construct: expressed in transfected cells; host or cells: CHO-K1 cells (Chinese hamster ovary), stably co-expressing mouse CNGA2 as the calcium read-out channel
T1 sequence (Q02153 1-619): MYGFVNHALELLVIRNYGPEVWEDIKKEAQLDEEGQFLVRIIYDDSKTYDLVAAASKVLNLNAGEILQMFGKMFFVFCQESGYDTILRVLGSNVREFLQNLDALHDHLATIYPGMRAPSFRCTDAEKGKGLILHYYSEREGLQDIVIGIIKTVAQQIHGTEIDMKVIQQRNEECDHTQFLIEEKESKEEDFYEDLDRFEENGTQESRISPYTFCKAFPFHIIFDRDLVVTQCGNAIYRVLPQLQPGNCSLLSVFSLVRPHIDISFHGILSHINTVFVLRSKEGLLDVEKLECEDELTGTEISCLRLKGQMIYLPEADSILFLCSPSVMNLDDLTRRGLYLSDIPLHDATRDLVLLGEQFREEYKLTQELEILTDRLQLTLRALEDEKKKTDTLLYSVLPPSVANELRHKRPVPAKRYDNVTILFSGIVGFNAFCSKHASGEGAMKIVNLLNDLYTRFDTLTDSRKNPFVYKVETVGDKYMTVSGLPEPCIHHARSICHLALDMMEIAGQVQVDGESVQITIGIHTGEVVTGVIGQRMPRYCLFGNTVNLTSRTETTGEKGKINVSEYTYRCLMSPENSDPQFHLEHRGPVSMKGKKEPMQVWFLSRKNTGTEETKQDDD
T1 sequence (Q02108 1-690 partner): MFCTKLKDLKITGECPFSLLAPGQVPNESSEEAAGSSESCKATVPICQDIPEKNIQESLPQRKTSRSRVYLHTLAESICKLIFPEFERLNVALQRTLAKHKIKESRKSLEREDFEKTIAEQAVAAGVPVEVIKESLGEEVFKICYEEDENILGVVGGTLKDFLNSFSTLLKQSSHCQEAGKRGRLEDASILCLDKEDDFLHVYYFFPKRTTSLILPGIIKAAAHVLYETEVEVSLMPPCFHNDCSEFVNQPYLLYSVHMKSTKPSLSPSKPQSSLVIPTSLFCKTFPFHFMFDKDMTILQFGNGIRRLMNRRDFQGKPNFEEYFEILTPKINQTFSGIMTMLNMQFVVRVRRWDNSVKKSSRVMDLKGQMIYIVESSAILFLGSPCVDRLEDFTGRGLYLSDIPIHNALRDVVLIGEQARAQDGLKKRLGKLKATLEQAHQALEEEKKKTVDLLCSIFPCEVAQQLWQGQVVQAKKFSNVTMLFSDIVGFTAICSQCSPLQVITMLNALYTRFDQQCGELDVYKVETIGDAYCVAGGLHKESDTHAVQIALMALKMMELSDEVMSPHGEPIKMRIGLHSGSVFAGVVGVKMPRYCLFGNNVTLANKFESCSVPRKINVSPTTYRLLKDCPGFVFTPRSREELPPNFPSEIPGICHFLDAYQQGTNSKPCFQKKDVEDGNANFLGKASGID
Briefly: Measurement of sGC activating effect in CHO-K1 cells stably expressing human sGC and mouse CNGA2. Type of assay: cell-based. The following applies: CHO-K1 cells expressing human sGC and mouse CNGA2, Fura2 calcium readout, 10 μmol/L ODQ in assay buffer. How it is done:
Chinese Hamster ovary cells (CHO-K1 cells) modified for stably expressing human sGC α subunit and β subunit, and a mouse cyclic nucleotide gated channel (CNGA2) were used in the test.
The CHO-K1 cells stably expressing human sGC and mouse CNGA2 were cultured at 37° C. in a F-12 medium supplemented with 10% (v/v) fetal bovine serum (FBS), penicillin (100 U/mL), streptomycin (100 μg/mL), G418 (250 μg/mL), and Zeocin (250 μg/mL). The cells were suspended in a culture medium, seeded in a 96 well plate, and cultured at 37° C. for 24 hours. The cells were washed with an assay buffer 1 (140 mmol/L of sodium chloride, 5 mmol/L of potassium chloride, 0.5 mmol/L of magnesium chloride, 0.01 mmol/L of calcium chloride, 10 mmol/L of glucose, 0.4 mmol/L of magnesium sulfate, 10 mmol/L of 4-(2-hydroxyethyl)piperazine-1-yl ethanesulfonic acid, 125 μmol/L of sulfinpyrazone, pH 7.4), and then an indicator solution in which Fura2-AM as a fluorescent Ca2+ indicator is dissolved in assay buffer 1 at a concentration of 5 μmol/L was added thereto, and cultured at 37° C. for 60 minutes. The culture medium was removed, the cells were washed with assay buffer 1, the test compound solution was added thereto, and cultured at room temperature for 10 minutes. The plate was mounted on a fluorescence microplate reader (FlexStation II, available from Molecular Devices) with setting of excitation wavelengths of 340 and 380 nm and a detection wavelength of 510 nm, an intracellular calcium concentration was measured as a fluorescent intensity ratio obtained from each excitation wavelength.
In this test, the solution of the test compound was prepared by dissolving each test compound in DMSO at a concentration of 10 mmol/L, and then diluting the solution with assay buffer 2 (140 mmol/L of sodium chloride, 5 mmol/L of potassium chloride, 0.5 mmol/L of magnesium chloride, 1 mmol/L of calcium chloride, 10 mmol/L of glucose, 0.4 mmol/L of magnesium sulfate, 10 mmol/L of 4-(2-hydroxyethyl)piperazine-1-yl ethanesulfonic acid, 125 μmol/L of sulfinpyrazone, 100 μmol/L of isobutylmethylxanthine, 10 μmol/L of 1H-[1,2,4]-oxadiazole [4,3-a]quinoxaline-1-on (hereinafter, referred to as ODQ), pH 7.4), in order to adjust the concentration of 10 μmol/L for testing. As a control solution, a DMSO diluted solution was used, instead of the test compound solution.
The activity of the test compound was calculated as an increase rate (%) of the sGC activity in the test compound solution relative to the sGC activity in the control solution, by dividing a fluorescent intensity ratio in adding the test compound by a fluorescent intensity ratio of the control solution, and subtracting the sGC activity in the control solution (100%) therefrom. An EC50 value was calculated from the activity of the test compound at concentrations of 0.0001, 0.001, 0.003, 0.01, 0.03, 0.1, 1, and 10 μmol/L, using a 4 parameter losgistic model from Assay Explorer (available from Dssault Systèmes BIOVIA).

`O=C(O)CCCCN(Cc1ccc(C(=O)O)cc1)C[C@H](OCc1ccc(CCc2ccc(Cl)cc2)cc1)c1ccccc1` [Compound No. 6, (−)-4-([N-(4-carboxybutyl)-N-[(2R)-2-[4-[2-(4-chlorophenyl)ethyl]benzyloxy]-2-phenylethyl]amino]methyl)benzoic acid]: the pEC50 was 8.50.

Turning to `N#Cc1cccc([C@H](CN(CCCCC(=O)O)Cc2ccc(C(=O)O)cc2)OCc2ccc(Oc3ccccc3)cc2)c1` [Comparative Compound 3, reference compound], the pEC50 is 8.15.

Consider `O=C(O)CCCCN(Cc1ccc(C(=O)O)cc1)C[C@H](OCc1ccc(CCc2ccccc2)cc1)c1ccccc1` [Compound No. 14, (−)-4-([N-(4-carboxybutyl)-N-[(2R)-2-[4-(2-phenylethyl)benzyloxy]-2-phenylethyl]amino]methyl)benzoic acid], for which the pEC50 was 8.24.

In the case of `O=C(O)CCCCN(CCc1ccccc1OCc1ccc(CCc2ccccc2)cc1)Cc1ccc(C(=O)O)cc1` [Comparative Compound 1, reference compound], the pEC50 was 8.05.

Consider `O=C(O)CCCCN(CCc1ccccc1OCc1ccc(CCc2ccccc2)cc1)C1COc2cc(C(=O)O)ccc21` (stereo not shown) [Comparative Compound 2, reference compound], for which the pEC50 is 7.71.

Consider `O=C(O)CCCCN(CCc1ccccc1OCc1cccc2c1CCCC2)[C@H]1CCCc2cc(C(=O)O)ccc21` [Compound No. 8, (+)-(5S)-5-[N-(4-carboxybutyl)-N-[2-[2-(5,6,7,8-tetrahydronaphthalene-1-ylmethoxy)phenyl]ethyl]amino]-5,6,7,8-tetrahydronaphthalene-2-carboxylic acid], for which the pEC50 was 8.18.

On to `CC(C)(C)c1cc(CO[C@@H](CN(CCCCC(=O)O)Cc2ccc(C(=O)O)cc2)c2ccccc2)cc(C(C)(C)C)c1` [Comparative Compound 4, reference compound], for which the pEC50 is 9.34.
